The values below come from patent publication US10154990B2, “Medicaments for the treatment or prevention of fibrotic diseases” (Boehringer Ingelheim International GmbH, priority 2004, dated 2018).

Where a name gives a salt, the structure may show the parent alone.

Broadly, the melting point is the temperature, or range, at which the solid turns liquid. In turn, `NC(CCO)(CCO)c1ccc(N/C(=C2\C(=O)Nc3cc(C(=O)O)ccc32)c2ccccc2)cc1` (as salt: Na) [(aq), 3-Z-[1-(4-(di-(2-hydroxy-ethyl)-amino-methyl)-anilino)-1-phenyl-methylene]-6-carboxy-2-indolinone] registered a melting point of 256 to 257 °C.

`COC(=O)c1ccc2c(c1)NC(=O)/C2=C(\Nc1ccc(N(C)C(=O)CC2CCN(C)CC2)cc1)c1ccccc1` [(ad), 3-Z-[1-(4-(N-((1-methyl-piperidin-4-yl)-methylcarbonyl)-N-methyl-amino)-anilino)-1-phenyl-methylene]-6-methoxycarbonyl-2-indolinone]: the melting point lay in the range of 190 to 193 °C.

As to `COC(=O)c1ccc2c(c1)NC(=O)/C2=C(\Nc1ccc(NC(=O)CN2CCN(C)CC2)c(C)c1C)c1ccccc1` [(ae), 3-Z-[1-(2,3-dimethyl-4-(N-((4-methyl-piperazin-1-yl)-methylcarbonyl)-amino)-anilino)-1-phenyl-methylene]-6-methoxycarbonyl-2-indolinone], the melting point lay in the range of 254 to 257 °C.

For the molecule `COC(=O)c1ccc2c(c1)NC(=O)/C2=C(\Nc1ccc(N(C)C(=O)N2CCN(C)CC2)cc1)c1ccccc1` [(ag), 3-Z-[1-(4-(N-((4-methyl-piperazin-1-yl)-carbonyl)-N-methyl-amino)-anilino)-1-phenyl-methylene]-6-methoxycarbonyl-2-indolinone], the melting point fell in the range of 205 to 208 °C.

As for `COC(=O)c1ccc2c(c1)NC(=O)/C2=C(\Nc1ccc(N(C)C(=O)NCCCN(C)C)cc1)c1ccccc1` [(ai), 3-Z-[1-(4-(N-((3-dimethylamino-propyl)-aminocarbonyl)-N-methyl-amino)-anilino)-1-phenyl-methylene]-6-methoxycarbonyl-2-indolinone], the melting point fell in the range of 166 to 170 °C.

For the molecule `CN1CCN(Cc2ccc(N/C(=C3\C(=O)Nc4cc(C(=O)O)ccc43)c3ccccc3)cc2)CC1` [(am), 3-Z-[1-(4-(4-methylpiperazin-1-yl-methyl)-anilino)-1-phenyl-methylene]-6-carboxy-2-indolinone], the melting point was 275 °C.

`CNCc1ccc(N/C(=C2\C(=O)Nc3cc(C(=O)O)ccc32)c2ccccc2)cc1` [(an), 3-Z-[1-(4-methylaminomethyl-anilino)-1-phenyl-methylene]-6-carboxy-2-indolinone]: the melting point turned out to be 287 °C.

`O=C1Nc2cc(C(=O)O)ccc2/C1=C(/Nc1ccc(CN2CCOCC2)cc1)c1ccccc1` [(ao), 3-Z-[1-(4-(morpholin-4-yl-methyl)-anilino)-1-phenyl-methylene]-6-carboxy-2-indolinone]: the melting point was determined as 335 °C.

Consider `CN(C)CCN(c1ccc(N/C(=C2\C(=O)Nc3cc(C(=O)O)ccc32)c2ccccc2)cc1)S(C)(=O)=O` [(ap), 3-Z-[1-(4-(N-(2-dimethylamino-ethyl)-N-methylsulphonyl-amino)-anilino)-1-phenyl-methylene]-6-carboxy-2-indolinone], for which the melting point turned out to be 280 °C.

`CN(C(=O)CN1CCOCC1)c1ccc(N/C(=C2\C(=O)Nc3cc(C(=O)O)ccc32)c2ccccc2)cc1` [(as), 3-Z-[1-(4-(N-(morpholin-4-yl-methylcarbonyl)-N-methyl-amino)-anilino)-1-phenyl-methylene]-6-carboxy-2-indolinone] showed a melting point of 237 to 238 °C.

The molecule `CN(C)CCN(C)CC(=O)N(C)c1ccc(N/C(=C2\C(=O)Nc3cc(C(=O)O)ccc32)c2ccccc2)cc1` [(at), 3-Z-[1-(4-(N—(N-(2-dimethylamino-ethyl)-N-methyl-aminomethylcarbonyl)-N-methyl-amino)-anilino)-1-phenyl-methylene]-6-carboxy-2-indolinone] showed a melting point of 238 to 240 °C.

`COC(=O)c1ccc2c(c1)NC(=O)/C2=C(\Nc1ccc(CN(C)C)cc1)c1cccc(CCC(=O)O)c1` [(aw), 3-Z-[1-(4-dimethylaminomethyl-anilino)-1-(3-(2-carboxy-ethyl)-phenyl)-methylene]-6-methoxycarbonyl-2-indolinone] had a melting point of 163 to 167 °C.

For `COC(=O)c1ccc2c(c1)NC(=O)/C2=C(\Nc1ccc(CCN(C)C)cc1)c1cccc(CCC(=O)O)c1` [(ax), 3-Z-[1-(4-(2-dimethylamino-ethyl)-anilino)-1-(3-(2-carboxy-ethyl)-phenyl)-methylene]-6-methoxycarbonyl-2-indolinone], the melting point was in the range of 248 to 255 °C.

Turning to `COC(=O)c1ccc2c(c1)NC(=O)/C2=C(\Nc1ccc(-c2nccn2C)cc1)c1cccc(CCC(=O)O)c1` [(ay), 3-Z-[1-(4-(1-methyl-imidazol-2-yl)-anilino)-1-(3-(2-carboxy-ethyl)-phenyl)-methylene]-6-methoxycarbonyl-2-indolinone], the melting point was 184 to 190 °C.

In turn, `COC(=O)c1ccc2c(c1)NC(=O)/C2=C(\Nc1ccc(CN(C)C)cc1)c1ccc(CCC(=O)O)cc1` [(az), 3-Z-[1-(4-dimethylaminomethyl-anilino)-1-(4-(2-carboxy-ethyl)-phenyl)-methylene]-6-methoxycarbonyl-2-indolinone] displayed a melting point of 190 to 195 °C.

`CCNC(=O)c1ccc2c(c1)NC(=O)/C2=C(\Nc1ccc(OCCN(C)C)cc1)c1ccccc1` [(bu), 3-Z-[1-(4-(2-dimethylamino-ethoxy)-anilino)-1-phenyl-methylene]-6-ethylcarbamoyl-2-indolinone] displayed a melting point of 308 to 311 °C.

As for `CCNC(=O)c1ccc2c(c1)NC(=O)/C2=C(\Nc1ccc(N(C)C(=O)CN2CCN(C)CC2)cc1)c1ccccc1` [(bv), 3-Z-[1-(4-(N-((4-methyl-piperazin-1-yl)-methylcarbonyl)-N-methyl-amino)-anilino)-1-phenyl-methylene]-6-ethylcarbamoyl-2-indolinone], the melting point was 279 to 283 °C.

The molecule `CCNC(=O)c1ccc2c(c1)NC(=O)/C2=C(\Nc1ccc(N(CCN(C)C)S(C)(=O)=O)cc1)c1ccccc1` [(bw), 3-Z-[1-(4-(N-(2-dimethylamino-ethyl)-N-methylsulphonyl-amino)-anilino)-1-phenyl-methylene]-6-ethylcarbamoyl-2-indolinone] yielded a melting point of 213 to 217 °C.

`CCNC(=O)c1ccc2c(c1)NC(=O)/C2=C(\Nc1ccc(N(C)C(=O)CN(C)C)cc1)c1ccccc1` [(by), 3-Z-[1-(4-(N-dimethylaminomethylcarbonyl-N-methyl-amino)-anilino)-1-phenyl-methylene]-6-ethylcarbamoyl-2-indolinone] gave a melting point of 130 to 134 °C.

The molecule `CCNC(=O)c1ccc2c(c1)NC(=O)/C2=C(\Nc1ccc(CN(C)C)cc1)c1ccccc1` [(bz), 3-Z-[1-(4-dimethylaminomethyl-anilino)-1-phenyl-methylene]-6-ethylcarbamoyl-2-indolinone] gave a melting point of 341 to 344 °C.

The molecule `CCNC(=O)c1ccc2c(c1)NC(=O)/C2=C(\Nc1ccc(N(CCN(C)C)C(C)=O)cc1)c1ccccc1` [(ca), 3-Z-[1-(4-(N-(2-dimethylamino-ethyl)-N-acetyl-amino)-anilino)-1-phenyl-methylene]-6-ethylcarbamoyl-2-indolinone] came in with a melting point of 266 to 270 °C.

For `CCNC(=O)c1ccc2c(c1)NC(=O)/C2=C(\Nc1ccc(N(CCCN(C)C)C(C)=O)cc1)c1ccccc1` [(cb), 3-Z-[1-(4-(N-(3-dimethylamino-propyl)-N-acetyl-amino)-anilino)-1-phenyl-methylene]-6-ethylcarbamoyl-2-indolinone], the melting point was 198 to 202 °C.

Molecule `CCNC(=O)c1ccc2c(c1)NC(=O)/C2=C(\Nc1ccc(C(=O)N2CCN(C)CC2)cc1)c1ccccc1` [(cf), 3-Z-[1-(4-((4-methyl-piperazin-1-yl)-carbonyl)-anilino)-1-phenyl-methylene]-6-ethylcarbamoyl-2-indolinone] showed a melting point of 288 to 292 °C.

In the case of `CCN(CC)C(=O)c1ccc2c(c1)NC(=O)/C2=C(\Nc1ccc(N(C)C(=O)CN2CCN(C)CC2)cc1)c1ccccc1` [(ci), 3-Z-[1-(4-(N-((4-methyl-piperazin-1-yl)-methylcarbonyl)-N-methyl-amino)-anilino)-1-phenyl-methylene]-6-diethylcarbamoyl-2-indolinone], the melting point was 195 to 198 °C.

In turn, `CCNC(=O)c1ccc2c(c1)NC(=O)/C2=C(\Nc1ccc(C(=O)N2CCN(CC)CC2)cc1)c1ccccc1` [(ck), 3-Z-[1-(4-((4-ethyl-piperazin-1-yl)-carbonyl)-anilino)-1-phenyl-methylene]-6-ethylcarbamoyl-2-indolinone] returned a melting point of 127 to 130 °C.

In the case of `CCNC(=O)c1ccc2c(c1)NC(=O)/C2=C(\Nc1ccc(C(=O)N2C[C@@H](C)N[C@@H](C)C2)cc1)c1ccccc1` [(cm), 3-Z-[1-(4-((cis-3,5-dimethyl-piperazin-1-yl)-carbonyl)-anilino)-1-phenyl-methylene]-6-ethylcarbamoyl-2-indolinone], the melting point is 217 to 220 °C.

Molecule `CCNC(=O)c1ccc2c(c1)NC(=O)/C2=C(\Nc1ccc(N(CCCN(C)C)S(C)(=O)=O)cc1)c1ccccc1` [(cn), 3-Z-[1-(4-(N-(3-dimethylamino-propyl)-N-methylsulphonyl-amino)-anilino)-1-phenyl-methylene]-6-ethylcarbamoyl-2-indolinone] came in with a melting point of 171 to 175 °C.

Turning to `COC(=O)c1ccc2c(c1)NC(=O)/C2=C\Nc1ccc(N(C)C(=O)CN(C)C)cc1` [(co), 3-Z-[1-(4-(N-dimethylaminomethylcarbonyl-N-methyl-amino)-anilino)-methylene]-6-methoxycarbonyl-2-indolinone], the melting point fell in the range of 250 to 255 °C.

The molecule `COC(=O)c1ccc2c(c1)NC(=O)/C2=C\Nc1ccc(CN(C)C)cc1` [(cp), 3-Z-[1-(4-dimethylaminomethyl-anilino)-methylene]-6-methoxycarbonyl-2-indolinone] returned a melting point of 234 to 238 °C.

Take `COC(=O)c1ccc2c(c1)NC(=O)/C2=C\Nc1ccc(N(C)C(=O)CN2CCN(C)CC2)cc1` [(cq), 3-Z-[1-(4-(N-((4-methyl-piperazin-1-yl)-methylcarbonyl)-N-methyl-amino)-anilino)-methylene]-6-methoxycarbonyl-2-indolinone]: the melting point was 203 to 207 °C.

`CCNC(=O)c1ccc2c(c1)NC(=O)/C2=C\Nc1ccc(CN2CCCCC2)cc1` [(ct), 3-Z-[1-(4-(piperidin-1-yl-methyl)-anilino)-methylene]-6-ethylcarbamoyl-2-indolinone] had a melting point of 245 to 248 °C.
